Assay [1] relates to EPC2 human esophageal keratinocytes. Kind of assay: Stimulation of EPC2-hTERT human esophageal keratinocytes with Poly(I:C). It is filed as cell-based. The note with it: 24 hours, increasing concentrations; for percent inhibition relative to Stimulated of TSLP expression: FIG. 19A; for percent inhibition relative to Stimulated of IL-6 expression: FIG. 19B; for percent inhibition relative to Stimulated of MCP-1 expression: FIG. 19C. The procedure: EPC2-hTERT (EPC2) cells were maintained in supplemented keratinocyte serum-free medium (KSFM) with 0.09 mM calcium chloride containing epidermal growth factor (5 ng/mL), bovine pituitary extract ([…]), penicillin (100 units/mL), and streptomycin ([…]) (ThermoFisher #17005042) at 37° C. with 5% (v/v) CO2. EPC2 cells were seeded in 12-well plates at 0.55×10^6 cells per well in supplemented KSFM at 37° C. with 5% (v/v) CO2 and after 6 hours the old media is removed and changed with fresh media. After overnight incubation, the old media is changed to supplemented KSFM containing 1.8 mM calcium chloride and incubated for 72 hours at 37° C. with 5% (v/v) CO2. After the old media is removed and fresh supplemented KSFM containing 1.8 mM calcium chloride is added, the cells are pre-treated with different concentrations of compounds (0, 1, 10, 100, 500, 1000 μM) for 1 hour prior to stimulation. To stimulate the cells, Poly (I:C) (Tocris #4287) is added to the wells at […] concentration without removing the media and incubated for 24 hours at 37° C. with 5% (v/v) CO2. Supernatants are collected in Eppendorf tubes, centrifuged in a microfuge at maximum speed for 10 minutes at 4° C., and the centrifuged supernatants stored at −80° C. until quantitative detection assays are performed. Human Interleukin-6 (IL-6), Monocyte Chemoattractant Protein-1 (MCP-1), and Thymic stromal lymphopoietin (TSLP) released from supernatants collected post stimulation were measured using the AlphaLISA detection kit for human IL-6, MCP-1, and TSLP, respectively.

A further assay has as its system human naïve T cells. Description: Stimulation of blood derived naïve T cells with Der p1 (house dust mite) antigen. Format: cell-based. The settings on record: at 100 μM; human T cells, Der p1 antigen; FIG. 15. The procedure: Naïve T cells from peripheral blood samples were collected and processed using MACSxpress® Whole Blood Pan T Cell Isolation Kit (Miltenyi Biotec), according to the manufacturer's protocol. Isolated naïve T cells were cultured in RPMI medium supplemented with 5% Fetal Bovine Serum (FBS) at 37° C. with 5% (v/v) CO2. T cells were seeded in 24 well plates at a density of 0.5×10^6 cells per well. The cells were pre-treated with the compounds (0, 0.1, 1.0, 10, 100 μM) for 1 hour prior to stimulation. Cells were stimulated with […] of Dermatophagoides pteronyssinus (Der p1) antigen. After 48 hours, fresh […] of Der p1 was added and continued incubating for a further 72 hours at 37° C. with 5% (v/v) CO2. Overall T cells were stimulated with […] of Der p1 antigen for 5 days before supernatants were collected and stored at −80° C. until quantitative detection assays are performed.
Human Interleukin-4 (IL-4), Interleukin-5 (IL-5), Interleukin-6 (IL-6), Interleukin-8 (IL-8), Interleukin-13 ([…]), Interleukin-23 (IL-23), and Interferon gamma (IFNγ) released from supernatants collected post stimulation were measured using Human Magnetic Luminex® Assay Kit. Human Transforming Growth Factor beta (TGFβ) was measured using an Enzyme-Linked Immunosorbent Assay (ELISA)-based analysis.

The test system of assay [2] is THP1 human macrophage cells. Description: Stimulation of THP-1 cells, IL-6 at 6 or 36 hours post stimulation. It is filed as cell-based. The settings on record: THP1-derived macrophages, IFNγ + LPS, 0.1 to 500 μM, FIG. 9. The procedure:
Human immortalized monocytic THP-1 cells were maintained in phenol red free RPMI 1640 medium containing 10% (v/v) fetal bovine serum (FBS), 2 mM L-glutamine, penicillin (100 units/mL), streptomycin (100 μg/mL), amphotericin B (2.5 μg/mL), and 50 μM beta-mercaptoethanol (BME) at 37° C. with 5% (v/v) CO2. THP-1 cells were seeded in 1 mL of THP-1 medium (cell culture medium containing 10% (v/v) FBS, 2 mM L-glutamine, penicillin (100 units/mL), streptomycin (100 μg/mL), amphotericin B ([…]), and 50 μM BME)/well at a density of 1×10^6 cells/mL in six-well plates. Cells were differentiated by adding 10, 50, or 100 nM phorbol 12-myristate 13-acetate (PMA) to each well before incubating cells for 5.5 h at 37° C. with 5% (v/v) CO2. Without removing the media, different concentrations (either 0, 0.1, 1.0, 10, 100, 200, or 500 μM) of the compound were added to each well. Cells were stimulated, within 30 min by adding 20 ng/mL interferon gamma (IFNγ) and 100 ng/mL lipopolysaccharide (LPS) to each well. Following stimulation, the THP-1 cells were incubated for 6 or 36 hours at 37° C. with 5% (v/v) CO2. Supernatant was collected and stored at −80° C. until use.
IL-6 released from supernatants collected at 6 or 36 hours post stimulation with IFNγ and LPS were measured using the AlphaLISA Human IL-6 detection kit.

Assay [3] relates to A549 human alveolar epithelial cells. Description: Stimulation of A549 human lung carcinoma cell line, cytokine expression. The note with it: A549, 10 ng/mL TNFα + 10 ng/mL IL-1β, 48 hours. Format: cell-based. As to the method:
A549 cells are cultured in DMEM supplemented with 2 mM glutamine and 10% Fetal Bovine Serum (FBS) at 37° C. with 5% (v/v) CO2. Cells are grown to approximately 80% confluency before being passage and media is changed every 2-3 days. A549 cells are seeded in 24-well plates at a density of 0.5×10^6 cells per well at 37° C. with 5% (v/v) CO2. The cells are pre-treated with the compounds (0, 1.0, 10, 100 μM) for 1 hour prior to addition of 10 ng/mL of TNFα and 10 ng/mL of IL-1β for 48 hours at 37° C. with 5% (v/v) CO2. Supernatants were collected and stored at −80° C. until quantitative detection assays are performed.
Human Eotaxin, Monocyte Chemoattractant Protein-1 (MCP-1), Interleukin-6 (IL-6), Interleukin-25 (IL-25), Interleukin-33 (IL-33), Thymic stromal lymphopoietin (TSLP), and Granulocyte-Macrophage Colony-Stimulating Factor (GM-CSF) released from supernatants collected post stimulation were measured using Human Magnetic Luminex® Assay Kit. Human CCL5/RANTES was measured using an Enzyme-Linked Immunosorbent Assay (ELISA)-based analysis.

The test system of assay [4] is THP-1 derived macrophages. Description: Stimulation of THP-1 cells, cytokine release 72 h post stimulation. The settings on record: 72 h post stimulation (IFN-γ + LPS); 0.1, 1, 10, 100 or 200 μM vs 0 μM. Format: cell-based, human. The procedure:
Human immortalized monocytic THP-1 cells were maintained in phenol red free RPMI 1640 medium containing 10% (v/v) fetal bovine serum (FBS), 2 mM L-glutamine, penicillin (100 units/mL), streptomycin (100 μg/mL), amphotericin B (2.5 μg/mL), and 50 μM beta-mercaptoethanol (BME) at 37° C. with 5% (v/v) CO2. THP-1 cells were seeded in 1 mL of THP-1 medium (cell culture medium containing 10% (v/v) FBS, 2 mM L-glutamine, penicillin (100 units/mL), streptomycin (100 μg/mL), amphotericin B (2.5 μg/mL), and 50 μM BME)/well at a density of 1 million cells/mL in six-well plates. Cells were differentiated by adding 100 nM phorbol 12-myristate 13-acetate (PMA) to each well before incubating cells for 5.5 h at 37° C. with 5% (v/v) CO2. Without removing the media, different concentrations (either 0, 0.1, 1, 10, 100, or 200 μM) of 1 and 10 were added to each well. Cells were stimulated, within 30 min by adding 20 ng/mL interferon gamma (IFN-γ) and 100 ng/mL lipopolysaccharide (LPS) to each well. Following stimulation, the THP-1 cells were incubated for 72 h at 37° C. with 5% (v/v) CO2. Supernatant was collected and stored at −80° C. until use.
IL-6 release from supernatant collected at 72 hours post stimulation was measured using the AlphaLISA Human IL-6 detection kit.
TNFα release from supernatant collected at 72 hours post stimulation was measured using the AlphaLISA Human TNFα detection kit.

Entries after “also recorded” stand apart in the source; their conditions may differ.

As to `C[C@H](CC/C=C/C(=O)OCC1CCCCC1)O[C@@H]1O[C@@H](C)[C@H](O)C[C@H]1O` [Compound 3, cyclohexylmethyl (2E,6R)-6-{[(2R,3R,5R,6S)-3,5-dihydroxy-6-methyloxan-2-yl]oxy}hept-2-enoate], in assay [1], the “percent inhibition relative to Stimulated of TSLP expression” value is “statistically significant inhibition; also recorded: completely inhibited”; the “percent inhibition relative to Stimulated of IL-6 expression” value is on record as “inhibited IL-6 expression in statistically significant, dose-dependent manner”; the “percent inhibition relative to Stimulated of MCP-1 expression” value is “inhibited MCP-1 expression in statistically significant, dose-dependent manner”. Besides, in the assay on human naïve T cells, the “percent inhibition relative to Stimulated of IL-6 expression” value is “statistically significant inhibition”, the “percent inhibition relative to Stimulated of IL-8 expression” value is recorded as “statistically significant inhibition” and the “percent inhibition relative to Stimulated of TNFα expression” value is recorded as “statistically significant inhibition”. The “percent inhibition relative to Control of IL-6 levels secreted” value in assay [2] is “inhibited IL-6 expression in statistically significant, dose-dependent manner”.

Consider `C[C@H](CCCCC(=O)OC(C)(C)C)O[C@@H]1O[C@@H](C)[C@H](O)C[C@H]1O` [Compound 10, tert-butyl (R)-6-(((2R,3R,5R,6S)-3,5-dihydroxy-6-methyltetrahydro-2H-pyran-2-yl)oxy)heptanoate], for which, in assay [3] (1.0, 10, 100 μM, FIG. 16, 17), the “percent inhibition relative to Stimulated of GM-CSF expression” value is recorded as “overall statistically significant, dose-dependent inhibition”; the “percent inhibition relative to Stimulated of IL-25 expression” value is on record as “overall statistically significant, dose-dependent inhibition”; the “percent inhibition relative to Stimulated of IL-33 expression” value is given as “overall statistically significant, dose-dependent inhibition”; the “percent inhibition relative to Stimulated of MCP-1 expression” value is given as “overall statistically significant, dose-dependent inhibition”. In assay [3] (FIG. 18), the “percent inhibition relative to Stimulated of Eotaxin expression” value is “robust, statistically significant inhibition”; the “percent inhibition relative to Stimulated of IL-6 expression” value was “robust, statistically significant inhibition”; the “percent inhibition relative to Stimulated of RANTES expression” value is “robust, statistically significant inhibition”; the “percent inhibition relative to Stimulated of TSLP expression” value is “robust, statistically significant inhibition”. Besides, in assay [1], the “percent inhibition relative to Stimulated of TSLP expression” value was “statistically significant inhibition; also recorded: robust blocking”; the “percent inhibition relative to Stimulated of IL-6 expression” value was “inhibited IL-6 expression in statistically significant, dose-dependent manner”; the “percent inhibition relative to Stimulated of MCP-1 expression” value is given as “inhibited MCP-1 expression in statistically significant, dose-dependent manner”. Further, the “percent inhibition relative to Control of IL-6 levels secreted” value in assay [2] was “inhibited IL-6 expression in statistically significant, dose-dependent manner”. Further, in assay [4], the “fold change of IL-6 levels secreted by the THP1-derived macrophages” value is “reduced these levels significantly; also recorded: even more significantly reduced” and the “fold change of TNFα levels secreted by the THP1-derived macrophages” value is recorded as “reduced these levels significantly”.

Values taken from US11845770B2, “Ascaroside derivatives and methods of use” (California Institute of Technology, priority 2019, dated 2023).
